Reference: patent publication US11130769B2 (Prelude Therapeutics Incorporated, priority 2018, dated 2021)
Like-named read-outs stand apart in the source and are kept apart here.

What was measured:
H929 cells = experiment: Cell viability assay (H929 10 FBS); type: cell-based; conditions: Homo sapiens, NCI-H929, 24 hours, read-out: H929_10FBS IC50
Procedure, shortened: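 H929 cells, 4000/well, in RPMI 1640 with 10% FBS, sodium pyruvate, HEPES and glucose were exposed to compound 24 h at 37 °C. Viability read as luminescence after 30-60 min at RT with CellTiter-Glo or ATPlite 1 Step.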

MCL-1 = MCL-1 (Homo sapiens (Human), UniProt Q07820); experiment: Cell free Mcl-1:Bim affinity assay (fluorescence polarization competition); type: binding; conditions: 15 nM MCL-1, 5 nM FITC-Bim, 1 hour at room temperature, read-out: BIM_Ki
MCL-1, sequence (Q07820 whole entry): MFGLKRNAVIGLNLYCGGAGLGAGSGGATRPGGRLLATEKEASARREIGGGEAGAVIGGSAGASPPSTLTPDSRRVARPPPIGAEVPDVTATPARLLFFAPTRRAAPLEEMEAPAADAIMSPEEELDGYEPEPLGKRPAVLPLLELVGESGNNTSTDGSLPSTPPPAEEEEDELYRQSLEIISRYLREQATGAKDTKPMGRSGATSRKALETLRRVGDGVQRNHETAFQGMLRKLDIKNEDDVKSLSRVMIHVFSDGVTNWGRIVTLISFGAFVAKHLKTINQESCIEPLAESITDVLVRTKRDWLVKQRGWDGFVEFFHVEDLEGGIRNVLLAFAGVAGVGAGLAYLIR
Procedure, shortened: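 Compounds competed with FITC-labelled Bim peptide (5 nM) for MCL-1 (15 nM) in HEPES/NaCl buffer with 1% DMSO, 1 h at room temperature. Fluorescence polarization (535 nm emission) gave % inhibition versus DMSO and positive controls; IC50 from 10-point curves, converted to Ki by the Nikolovska-Coleska equation.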

SMILES	IC50 (H929 cells) [nM]	Ki (MCL-1; class symbols) [nM]	Ki (MCL-1; numeric values) [nM]
CCNC(=O)O[C@H]1/C=C/CN(C)C(C)(C)C(=O)NS(=O)(=O)c2ccc3c(c2)N(C[C@@H]2CC[C@H]21)C[C@@]1(CCCc2cc(Cl)ccc21)CO3 [Example 204, [(3R,6R,7S,8E,22S)-6′-Chloro-11,12,12-trimethyl-13,15,15-trioxo-spiro[20-oxa-15-thia-1,11,14-triazatetracyclo[14.7.2.03,6.019,24]pentacosa-8,16,18,24-tetraene-22,1′-tetralin]-7-yl] N-ethylcarbamate]	< 500	< 1	
CO[C@@H]1/C=C/CN(C)C2(CCC2)C(=O)NS(=O)(=O)c2ccc3c(c2)N(C[C@@H]2CC[C@H]21)C[C@@]1(CCCc2cc(Cl)ccc21)CO3 [Example 120, (3R,6R,7R,8E,22S)-6′-Chloro-7-methoxy-11-methyl-12,12-(1,3-propylene)-15,15-dioxo-spiro[20-oxa-15-thia-1,11,14-triazatetracyclo[14.7.2.03,6.019,24]pentacosa[8,16(25),17,19(24)]tetraene-22,1′-tetralin]-13-one]	< 1000	1 to 100	
CN(C)C(=O)O[C@H]1/C=C/CN(C)C2(CCC2)C(=O)NS(=O)(=O)c2ccc3c(c2)N(C[C@@H]2CC[C@H]21)C[C@@]1(CCCc2cc(Cl)ccc21)CO3 [Example 48, [(3R,6R,7R,8E,22S)-6′-Chloro-11-methyl-12,12-(1,3-propylene)-13,15,15-trioxo-spiro[20-oxa-15-thia-1,11,14-triazatetracyclo[14.7.2.03,6.019,24]pentacosa-8,16,18,24-tetraene-22,1′-tetralin]-7-yl] N,N-dimethylcarbamate]	< 500	< 1	
CC(=O)NS(=O)(=O)c1ccc2c(c1)N(Cc1ccccc1)CC1(CCCc3cc(Cl)ccc31)CO2 (stereo not shown) [Example 4, N-(5-Benzyl-6′-chloro-spiro[2,4-dihydro-1,5-benzoxazepine-3,1′-tetralin]-7-yl)sulfonylacetamide]	> 1000		207
C[C@H]1NC/C=C/[C@H](OC(=O)N(C)C)[C@@H]2CC[C@H]2CN2C[C@@]3(CCCc4cc(Cl)ccc43)COc3ccc(cc32)S(=O)(=O)NC1=O [Example 146, [(3R,6R,7S,8E,12R,22S)-6′-Chloro-12-methyl-13,15,15-trioxo-spiro[20-oxa-15-thia-1,11,14-triazatetracyclo[14.7.2.03,6.019,24]pentacosa-8,16,18,24-tetraene-22,1′-tetralin]-7-yl] N,N-dimethylcarbamate]	< 500	1 to 100	
CN(C(=O)O[C@H]1/C=C/COC(C)(C)C(=O)NS(=O)(=O)c2ccc3c(c2)N(C[C@@H]2CC[C@H]21)C[C@]1(CO3)OCCc2cc(Cl)ccc21)C1COC1 [Example 298, [(3R,6R,7S,8E,22R)-6′-Chloro-12,12-dimethyl-13,15,15-trioxo-spiro[11,20-dioxa-15-thia-1,14-diazatetracyclo[14.7.2.03,6.019,24]pentacosa-8,16,18,24-tetraene-22,1′-isochromane]-7-yl] N-methyl-N-(oxetan-3-yl)carbamate]	< 1000	< 1	
CO[C@@H]1CCN(C(=O)O[C@H]2/C=C/COC(C)(C)C(=O)NS(=O)(=O)c3ccc4c(c3)N(C[C@@H]3CC[C@H]32)C[C@@]2(CCOc3cc(Cl)ccc32)CO4)C1 [Example 266, [(3R,6R,7S,8E,22S)-7′-Chloro-12,12-dimethyl-13,155-trioxo-spiro[11,20-dioxa-15-thia-1,14-diazatetracyclo[14.7.2.03,6.019,24]pentacosa-8,16,18,24-tetraene-22,4′-chromane]-7-yl] (3R)-3-methoxypyrrolidine-1-carboxylate]	< 500	< 1	
CC1(C)OC/C=C/[C@H](OC(=O)NC2CC2)[C@@H]2CC[C@H]2CN2C[C@@]3(CCCc4cc(Cl)ccc43)COc3ccc(cc32)S(=O)(=O)NC1=O [Example 188, [(3R,6R,7S,8E,22S)-6′-Chloro-12,12-dimethyl-13,15,15-trioxo-spiro[11,20-dioxa-15-thia-1,14-diazatetracyclo[14.7.2.03,6.019,24]pentacosa-8,16,18,24-tetraene-22,1′-tetralin]-7-yl] N-cyclopropylcarbamate]	< 500	< 1	
CC(=O)N(C)[C@H]1/C=C/COC(C)(C)C(=O)NS(=O)(=O)c2ccc3c(c2)N(C[C@@H]2CC[C@H]21)C[C@@]1(CCCc2cc(Cl)ccc21)CO3 [Example 255, N-Methyl-N-[(3R,6R,7S,8E,22S)-6′-chloro-12,12-dimethyl-13,15,15-trioxo-spiro[11,20-dioxa-15-thia-1,14-diazatetracyclo[14.7.2.03,6.019,24]pentacosa-8,16(25),17,19(24)-tetraene-22,1′-tetralin]-7-yl]acetamide]	> 1000	1 to 100	
CC1(C)OC/C=C/[C@H](OC(=O)N2CCN(C3COC3)CC2)[C@@H]2CC[C@H]2CN2C[C@@]3(CCCc4cc(Cl)ccc43)COc3ccc(cc32)S(=O)(=O)NC1=O [Example 187, [(3R,6R,7S,8E,22S)-6′-Chloro-12,12-dimethyl-13,15,15-trioxo-spiro[11,20-dioxa-15-thia-1,14-diazatetracyclo[14.7.2.03,6.019,24]pentacosa-8,16,18,24-tetraene-22,1′-tetralin]-7-yl] 4-(oxetan-3-yl)piperazine-1-carboxylate]	< 500	< 1	
CN(C)C(=O)O[C@H]1/C=C/COC2(CC2)C(=O)NS(=O)(=O)c2ccc3c(c2)N(C[C@@H]2CC[C@H]21)C[C@@]1(CCCc2cc(Cl)ccc21)CO3 [Example 41, [(3R,6R,7S,8E,22S)-6′-Chloro-12,12-ethylene-13,15,15-trioxo-spiro[11,20-dioxa-15-thia-1,14-diazatetracyclo[14.7.2.03,6.019,24]pentacosa-8,16,18,24-tetraene-22,1′-tetralin]-7-yl] N,N-dimethylcarbamate]	< 500	< 1	
CN1C/C=C/[C@H](OCCN2CC(F)(F)C2)[C@@H]2CC[C@H]2CN2C[C@@]3(CCCc4cc(Cl)ccc43)COc3ccc(cc32)S(=O)(=O)NC(=O)C1(C)C [Example 287, (3R,6R,7S,8E,22S)-6′-Chloro-7-[2-(3,3-difluoroazetidin-1-yl)ethoxy]-11,12,12-trimethyl-15,15-dioxo-spiro[20-oxa-15-thia-1,11,14-triazatetracyclo[14.7.2.03,6.019,24]pentacosa-8,16,18,24-tetraene-22,1′-tetralin]-13-one]	< 500	< 1	
O=C(O[C@H]1/C=C/COC2(CCC2)C(=O)NS(=O)(=O)c2ccc3c(c2)N(C[C@@H]2CC[C@H]21)C[C@@]1(CCCc2cc(Cl)ccc21)CO3)N1CCC1 [Example 232, [(3R,6R,7S,8E,22S)-6′-Chloro-12,12-(1,3-propylene)-13,15,15-trioxo-spiro[11,20-dioxa-15-thia-1,14-diazatetracyclo[14.7.2.03,6.019,24]pentacosa-8,16(25),17,19(24)-tetraene-22,1′-tetralin]-7-yl] N,N-1,3-propylene carbamate]	< 500	< 1	
CC1(C)OC/C=C/[C@H](OC(=O)NCCN2CCOCC2)[C@@H]2CC[C@H]2CN2C[C@@]3(CCCc4cc(Cl)ccc43)COc3ccc(cc32)S(=O)(=O)NC1=O [Example 180, [(3R,6R,7S,8E,22S)-6′-Chloro-12,12-dimethyl-13,15,15-trioxo-spiro[11,20-dioxa-15-thia-1,14-diazatetracyclo[14.7.2.03,6.019,24]pentacosa-8,16,18,24-tetraene-22,1′-tetralin]-7-yl] N-(2-morpholinoethyl)carbamate]	< 500	< 1	
CCOC(=O)N(C)[C@@H]1/C=C/CN(C)C(C)(C)C(=O)NS(=O)(=O)c2ccc3c(c2)N(C[C@@H]2CC[C@H]21)C[C@@]1(CCCc2cc(Cl)ccc21)CO3 [Example 253, Ethyl N-methyl-N-[(3R,6R,7R,8E,22S)-6′-chloro-11,12,12-trimethyl-13,15,15-trioxo-spiro[20-oxa-15-thia-1,11,14-triazatetracyclo[14.7.2.03,6.019,24]pentacosa-8,16(25),17,19(24)-tetraene-22,1′-tetralin]-7-yl]carbamate]	> 1000	1 to 100	
CN1C/C=C/[C@H](OC(=O)N2CCOCC2)[C@@H]2CC[C@H]2CN2C[C@@]3(CCCc4cc(Cl)ccc43)COc3ccc(cc32)S(=O)(=O)NC(=O)C1(C)C [Example 199, [(3R,6R,7S,8E,22S)-6′-Chloro-11,12,12-trimethyl-13,15,15-trioxo-spiro[20-oxa-15-thia-1,11,14-triazatetracyclo[14.7.2.03,6.019,24]pentacosa-8,16,18,24-tetraene-22,1′-tetralin]-7-yl]morpholine-4-carboxylate]	< 500	< 1	
CN1C/C=C/[C@H](OCCN2CC[C@@H](F)C2)[C@@H]2CC[C@H]2CN2C[C@@]3(CCCc4cc(Cl)ccc43)COc3ccc(cc32)S(=O)(=O)NC(=O)C1(C)C [Example 276, (3R,6R,7S,8E,22S)-6′-Chloro-7-[2-[(3R)-3-fluoropyrrolidin-1-yl]ethoxy]-11,12,12-trimethyl-15,15-dioxo-spiro[20-oxa-15-thia-1,11,14-triazatetracyclo[14.7.2.03,6.019,24]pentacosa-8,16,18,24-tetraene-22,1′-tetralin]-13-one]	< 1000	< 1	
